Biological target: T1, KRas-G12D (Homo sapiens, UniProt P01116, G12D)
T1 construct: insert the HiBiT tag onto the N-terminus of one or more of the endogenous KRas alleles; host or cells: AsPC-1 HiBiT-KRasG12D knock-in clone (one tagged allele, two untagged KRasG12D alleles)
Assay: HiBiT Degradation Assay (G12D), AsPC-1 HiBiT-KRasG12D cells, 24 hr
Type: cell-based
Settings: for Dmax: ASPC1, AsPC-1 cells, maximum degradation observed; for DC50: AsPC-1 cells
How it was run: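 AsPC-1 cells with CRISPR N-terminal HiBiT knock-in on one endogenous KRasG12D allele, treated 24 hr at 37° C with compound titrations in 0.5% DMSO. Lytic HiBiT luminescence normalized to DMSO, fitted to a 4-parameter model for DC50 and Dmax. Parallel alamar blue (4 hr) checked viability.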

T1 sequence (P01116 1-188 isoform P01116-2 G12D): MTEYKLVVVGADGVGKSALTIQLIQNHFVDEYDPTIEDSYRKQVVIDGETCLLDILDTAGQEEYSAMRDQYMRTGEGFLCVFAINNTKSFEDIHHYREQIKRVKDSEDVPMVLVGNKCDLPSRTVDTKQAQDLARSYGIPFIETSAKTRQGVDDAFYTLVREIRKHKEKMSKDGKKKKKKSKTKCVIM

Structure (SMILES)	Dmax [%]	DC50 [µM]
C#Cc1c(F)ccc2cc(O)cc(-c3ncc4c(N5CC6CCC(C5)N6)nc(OCCN5CCC(CC6CCN(CC7CCN(c8cccc9c8n(C(C)C)c(=O)n9C8CCC(=O)NC8=O)CC7)CC6)CC5)nc4c3F)c12 (centres unmarked) [Compound 94, 3-{4-[4-({4-[(1-{2-[(4-{3,8-diazabicyclo[3.2.1]octan-3-yl}-7-(8-ethynyl-7-fluoro-3-hydroxynaphthalen-1-yl)-8-fluoropyrido[4,3-d]pyrimidin-2-yl)oxy]ethyl}piperidin-4-yl)methyl]piperidin-1-yl}methyl)piperidin-1-yl]-2-oxo-3-(propan-2-yl)-2,3-dihydro-1H-1,3-benzodiazol-1-yl}piperidine-2,6-dione]	> 70	< 5.1
C#Cc1c(F)ccc2cc(O)cc(-c3ncc4c(N5CC6CCC(C5)N6)nc(OC[C@@H]5C[C@@H](OC6CCN(CC7CCN(c8ccc9c(c8)n(C(C)C)c(=O)n9C8CCC(=O)NC8=O)CC7)CC6)CN5C)nc4c3F)c12 (stereo partly drawn) [Compound 95, 3-(5-{4-[(4-{[(3R,5S)-5-{[(4-{3,8-diazabicyclo[3.2.1]octan-3-yl}-7-(8-ethynyl-7-fluoro-3-hydroxynaphthalen-1-yl)-8-fluoropyrido[4,3-d]pyrimidin-2-yl)oxy]methyl}-1-methylpyrrolidin-3-yl]oxy}piperidin-1-yl)methyl]piperidin-1-yl}-2-oxo-3-(propan-2-yl)-2,3-dihydro-1H-1,3-benzodiazol-1-yl)piperidine-2,6-dione]	> 70	< 5.1
C#Cc1c(F)ccc2cc(O)cc(-c3ncc4c(N5CC6CCC(C5)N6)nc(OC[C@@H]5C[C@@H](OC6CCN(CC7CCN(c8ccc9c(c8)n(C)c(=O)n9C8CCC(=O)NC8=O)CC7)CC6)CN5C)nc4c3F)c12 (stereo partly drawn) [Compound 96, 3-(5-{4-[(4-{[(3R,5S)-5-{[(4-{3,8-diazabicyclo[3.2.1]octan-3-yl}-7-(8-ethynyl-7-fluoro-3-hydroxynaphthalen-1-yl)-8-fluoropyrido[4,3-d]pyrimidin-2-yl)oxy]methyl}-1-methylpyrrolidin-3-yl]oxy}piperidin-1-yl)methyl]piperidin-1-yl}-3-methyl-2-oxo-2,3-dihydro-1H-1,3-benzodiazol-1-yl)piperidine-2,6-dione]	> 70	< 5.1
C#Cc1c(F)ccc2cc(O)cc(-c3ncc4c(N5CC6CCC(C5)N6)nc(OCCN5CCC(CC6CCN(CC7CCN(c8ccc9c(c8)CN(C8(C)CCC(=O)NC8=O)C9=O)CC7)CC6)CC5)nc4c3F)c12 (centres unmarked) [Compound 97]	–	> 1
C#Cc1c(F)ccc2cc(O)cc(-c3ncc4c(N5CC6CCC(C5)N6)nc(OCCN5CCC(CC6CCN(CC7CCN(c8ccc9c(c8)n(C(C)C)c(=O)n9C8CCC(=O)NC8=O)CC7)CC6)CC5)nc4c3F)c12 (centres unmarked) [Compound 98, 3-{5-[4-({4-[(1-{2-[(4-{3,8-diazabicyclo[3.2.1]octan-3-yl}-7-(8-ethynyl-7-fluoro-3-hydroxynaphthalen-1-yl)-8-fluoropyrido[4,3-d]pyrimidin-2-yl)oxy]ethyl}piperidin-4-yl)methyl]piperidin-1-yl}methyl)piperidin-1-yl]-2-oxo-3-(propan-2-yl)-2,3-dihydro-1H-1,3-benzodiazol-1-yl}piperidine-2,6-dione]	> 70	< 5.1
C#Cc1c(F)ccc2cc(O)cc(-c3ncc4c(N5CC6CCC(C5)N6)nc(OCC5(CN6CCC(CC7CCN(c8ccc9c(c8)CN(C8CCC(=O)NC8=O)C9=O)CC7)CC6)CC5)nc4c3F)c12 (centres unmarked) [Compound 99, 3-{5-[4-({1-[(1-{[(4-{3,8-diazabicyclo[3.2.1]octan-3-yl}-7-(8-ethynyl-7-fluoro-3-hydroxynaphthalen-1-yl)-8-fluoropyrido[4,3-d]pyrimidin-2-yl)oxy]methyl}cyclopropyl)methyl]piperidin-4-yl}methyl)piperidin-1-yl]-1-oxo-2,3-dihydro-1H-isoindol-2-yl}piperidine-2,6-dione]	> 70	< 5.1
C#Cc1c(F)ccc2cc(O)cc(-c3ncc4c(N5CC6CCC(C5)N6)nc(OC[C@@]56CCCN5[C@H](CN5CCN(CC7CCN(c8ccc9c(c8)CN(C8CCC(=O)NC8=O)C9=O)CC7)CC5)CC6)nc4c3F)c12 (stereo partly drawn) [Compound 100, 3-(5-{4-[(4-{[(3S,7aS)-7a-{[(4-{3,8-diazabicyclo[3.2.1]octan-3-yl}-7-(8-ethynyl-7-fluoro-3-hydroxynaphthalen-1-yl)-8-fluoropyrido[4,3-d]pyrimidin-2-yl)oxy]methyl}-hexahydro-1H-pyrrolizin-3-yl]methyl}piperazin-1-yl)methyl]piperidin-1-yl}-1-oxo-2,3-dihydro-1H-isoindol-2-yl)piperidine-2,6-dione]	> 70	< 5.1
C#Cc1c(F)ccc2cc(O)cc(-c3ncc4c(N5CC6CCC(C5)N6)nc(OCCN5CCC(CN6CCN(CC7CCN(c8ccc9c(c8F)CN(C8CCC(=O)NC8=O)C9=O)CC7)CC6)CC5)nc4c3F)c12 (centres unmarked) [Compound 101, 3-[5-[4-[[4-[[1-[2-[4-(3,8-diazabicyclo[3.2.1]octan-3-yl)-7-(8-ethynyl-7-fluoro-3-hydroxy-1-naphthyl)-8-fluoro-pyrido[4,3-d]pyrimidin-2-yl]oxyethyl]-4-piperidyl]methyl]piperazin-1-yl]methyl]-1-piperidyl]-4-fluoro-1-oxo-isoindolin-2-yl]piperidine-2,6-dione]	> 70	< 5.1
C#Cc1c(F)ccc2cc(O)cc(-c3ncc4c(N5CC6CCC(C5)N6)nc(OC[C@@H]5C[C@@H](OC6CCN(c7ccc8c(c7F)CN(C7CCC(=O)NC7=O)C8=O)CC6)CN5C)nc4c3F)c12 (stereo partly drawn) [Compound 103, 3-[5-(4-{[(3R,5S)-5-{[(4-{3,8-diazabicyclo[3.2.1]octan-3-yl}-7-(8-ethynyl-7-fluoro-3-hydroxynaphthalen-1-yl)-8-fluoropyrido[4,3-d]pyrimidin-2-yl)oxy]methyl}-1-methylpyrrolidin-3-yl]oxy}piperidin-1-yl)-4-fluoro-1-oxo-2,3-dihydro-1H-isoindol-2-yl]piperidine-2,6-dione]	> 70	< 5.1
C#Cc1c(F)ccc2cc(O)cc(-c3ncc4c(N5CC6CCC(C5)N6)nc(OC[C@@H]5C[C@@H](OC6CCN(c7ccc8c(c7)CN(C7CCC(=O)NC7=O)C8=O)CC6)CN5C)nc4c3F)c12 (some centres unmarked) [Compound 104]	> 70	< 5.1
C#Cc1c(F)ccc2cc(O)cc(-c3ncc4c(N5CC6CCC(C5)N6)nc(N(C)CCN5CCC(CC6CCN(CC7CCN(c8ccc9c(c8F)CN(C8CCC(=O)NC8=O)C9=O)CC7)CC6)CC5)nc4c3F)c12 (centres unmarked) [Compound 105]	≤ 25	< 5.1
C#Cc1c(F)ccc2cc(O)cc(-c3ncc4c(N5CC6CCC(C5)N6)nc(OCCN5CCC(OC6CCN(CC7CCN(c8ccc9c(c8F)CN(C8CCC(=O)NC8=O)C9=O)CC7)CC6)CC5)nc4c3F)c12 (centres unmarked) [Compound 106, 3-{5-[4-({4-[(1-{2-[(4-{3,8-diazabicyclo[3.2.1]octan-3-yl}-7-(8-ethynyl-7-fluoro-3-hydroxynaphthalen-1-yl)-8-fluoropyrido[4,3-d]pyrimidin-2-yl)oxy]ethyl}piperidin-4-yl)oxy]piperidin-1-yl}methyl)piperidin-1-yl]-4-fluoro-1-oxo-2,3-dihydro-1H-isoindol-2-yl}piperidine-2,6-dione]	> 70	< 5.1
C#Cc1c(F)ccc2cc(O)cc(-c3cnc4c(N5CC6CCC(C5)N6)nc(OCCN5CCC(CC6CCN(CC7CCN(c8ccc9c(c8F)CN(C8CCC(=O)NC8=O)C9=O)CC7)CC6)CC5)nc4c3)c12 (centres unmarked) [Compound 107]	–	> 1
C#Cc1c(F)ccc2cc(O)cc(-c3ccc4c(N5CC6CCC(C5)N6)nc(OCCN5CCC(CC6CCN(CC7CCN(c8ccc9c(c8F)CN(C8CCC(=O)NC8=O)C9=O)CC7)CC6)CC5)nc4c3)c12 (centres unmarked) [Compound 108]	≤ 25	< 5.1
C#Cc1c(F)ccc2cc(O)cc(-c3ncc4c(N5CC6CCC(C5)N6)nc(OCCN5CCC(CC6CCN(CC7CCN(c8ccc9c(c8Cl)CN(C8CCC(=O)NC8=O)C9=O)CC7)CC6)CC5)nc4c3F)c12 (centres unmarked) [Compound 109, 3-(5-(4-((4-((1-(2-((4-(-3,8-diazabicyclo[3.2.1]octan-3-yl)-7-(8-ethynyl-7-fluoro-3-hydroxynaphthalen-1-yl)-8-fluoropyrido[4,3-d]pyrimidin-2-yl)oxy)ethyl)piperidin-4-yl)methyl)piperidin-1-yl)methyl)piperidin-1-yl)-4-chloro-1-oxoisoindolin-2-yl)piperidine-2,6-dione]	> 70	< 5.1
C#Cc1c(F)ccc2cc(O)cc(-c3ncc4c(N5CC6CCC(C5)N6)nc(OCCN5CCC(CC6CCN(CC7CCN(c8ccc9c(c8)C(=O)N(C8CCC(=O)NC8=O)C9)CC7)CC6)CC5)nc4c3F)c12 (centres unmarked) [Compound 110, 3-{6-[4-({4-[(1-{2-[(4-{3,8-diazabicyclo[3.2.1]octan-3-yl}-7-(8-ethynyl-7-fluoro-3-hydroxynaphthalen-1-yl)-8-fluoropyrido[4,3-d]pyrimidin-2-yl)oxy]ethyl}piperidin-4-yl)methyl]piperidin-1-yl}methyl)piperidin-1-yl]-1-oxo-2,3-dihydro-1H-isoindol-2-yl}piperidine-2,6-dione]	> 70	< 5.1
C#Cc1c(F)ccc2cc(O)cc(-c3ncc4c(N5CC6CCC(C5)N6)nc(OCCN5CCC(CN6CCN(CC7CCN(c8ccc9c(c8)CN(C8CCC(=O)NC8=O)C9=O)CC7)CC6)CC5)nc4c3F)c12 (centres unmarked) [Compound 111, 3-[5-[4-[[4-[[1-[2-[4-(3,8-diazabicyclo[3.2.1]octan-3-yl)-7-(8-ethynyl-7-fluoro-3-hydroxy-1-naphthyl)-8-fluoro-pyrido[4,3-d]pyrimidin-2-yl]oxyethyl]-4-piperidyl]methyl]piperazin-1-yl]methyl]-1-piperidyl]-1-oxo-isoindolin-2-yl]piperidine-2,6-dione]	> 70	< 5.1

From patent US12448399B2, “Cereblon-based KRAS degrading PROTACs and uses related thereto” (Arvinas Operations, Inc., priority 2023, dated 2025)
